US11084830B2, “Five-membered non aromatic ring-pyrimidine HIV-1 reverse transcriptase inhibitor, preparation method therefor, and uses thereof” (priority 2018, dated 2021)
Where two headings read alike, the source gives them in different places.

Columns and labels:
[1] = system: mock-infected MT-4 cells; assay: Cytotoxicity in mock-infected MT-4 cells, MTT method; assay type: cell-based; conditions: human, 5 days
Description: (§1) The MTT method was described briefly as follows: stock solutions (10×final concentration) of test compounds were added in 25 μL volumes to two series of triplicate wells in order to allow simultaneous evaluation of the effects on mock- and HIV-infected cells. Using a Biomek 3000 robot (Beckman Instruments, Fullerton, Calif.), serial five-fold dilutions of the test compounds (final 200 μL volume per well) were made directly in flat-bottomed 96-well microtiter trays, including untreated control HIV-1 and mock-infected cell samples for each sample. HIV-1 (IIIB) and mutant HIV-1 strains stock (50 μL at 100-300 CCID50) or culture medium was added to either the infected or mock-infected wells of the microtiter tray. Mock-infected cells were used to evaluate the effect of test compounds on uninfected cells to assess cytotoxicity. Exponentially growing MT-4 cells were centrifuged for 5 min at 1000 rpm and the supernatant was discarded. The MT-4 cells were resuspended at 6×10^5 cells/mL, and 50 μL aliquots were transferred to the microtiter tray wells. At five days after infection, the viability of mock- and HIV-infected cells was determined spectrophotometrically by means of MTT assay.
(§2) The MTT assay is based on the reduction of yellow-colored MTT (Acros Organics, Geel, Belgium) by mitochondrial dehydrogenase of metabolically active cells to form a blue-purple formazan that can be measured spectrophotometrically. The absorbances were read in an eight-channel computer-controlled photometer, at the wavelengths of 540 and 690 nm. All data were calculated using the median optical density (OD) value of three wells.

[2] = system: NNRTI-resistant double-mutant strain K103N+Y181C (RES056); assay: microbe, parasite or virus in culture; assay type: cell-based, HIV-1; conditions: for EC50: Human immunodeficiency virus 1, MT4, read-out: EC50 RES056; for SI RES056: selectivity index, ratio of CC50/EC50, strain RES056
Description: (§3) Antiviral potency was evaluated in MT-4 cell cultures infected with WT HIV-1 strain (IllB) as well as cells infected with a panel of NNRTI-resistant double-mutant strain K103N+Y181C (RES056).
(§4) Selected compounds were screened for inhibitory activity against HIV-1 using MTT method as describe previously by Christophe. Pannecouque et al. Nat. Protoc. […] And in vitro anti-HIV activity of compounds were supported by Rega Institute for Medical Research. The MTT assay is based on the reduction of the yellow colored 3-(4,5-dimethylthiazol-2-yl)-2,5-diphenyltetrazolium bromide (MTT) by mitochondrial dehydrogenases of metabolically active cells to a blue formazan which can be measured spectrophotometrically. Tested optical density served as an indicator for live cells, and survival rate can be concluded by testing the optical density of 540 nm and 690 nm. MT-4 cells infected with HIV-1 can only survive for 5 to 7 days without any treatment, but when HIV-1 inhibitors were added, they can protect MT-4 cell from cytopathic. Serial solution of compounds was added to MT-4 cells after infected with HIV-1, MTT method was used to detect the survival rate after culture for 5 to 7 days.
(§5) (1) MT-4 cells infected with HIV-1 viral strains (IIIB, Y181C/K103N) were provided by Rega Institute for Medical Research, Katholieke Universiteit Leuven, Belgium.
(§6) (3) Preparation of compounds: Stock solutions (10×final concentration) of test compounds is diluted with double distilled H2O for 5 folds and 5 concentrations of one compound are prepared.
(§7) (5) Test method (MTT method): Serial five-fold dilutions of test compounds were added to cultured MT-4 cells infected with HIV-1, after 5 to 7 days, MTT was added and cultured for a few hours.
as §1, with “HIV-1 (IIIB) and mutant HIV-1 strains stock (50 μL at 100-300 CCID50) or culture medium was added to either the infected or mock-infected wells of the microtiter tray.” left out, “The MT-4 cells were resuspended at 6×10^5 cells/mL, and 50 μL aliquots were transferred to the microtiter tray wells.” left out
as §2

[3] = system: WT HIV-1 strain (IIIB); assay: Anti-HIV-1 activity in MT-4 cells, MTT method, wild-type strain IIIB; assay type: cell-based; conditions: for SI IIIB: selectivity index, ratio of CC50/EC50, strain IIIB; for EC50: Human immunodeficiency virus 1, IIIB, MT4, read-out: EC50 IIIB
Description: as §3, §4, §5, §6, §7
as §1, with “HIV-1 (IIIB) and mutant HIV-1 strains stock (50 μL at 100-300 CCID50) or culture medium was added to either the infected or mock-infected wells of the microtiter tray.” left out, “The MT-4 cells were resuspended at 6×10^5 cells/mL, and 50 μL aliquots were transferred to the microtiter tray wells.” left out
as §2

[4] = Cytotoxicity in mock-infected MT-4 cells, MTT method; assay type: cell-based; conditions: human
Description: as §1, §2

[5] = concentration reducing viability of mock-infected MT-4 cell cultures by 50%, MTT method, read-out: CC50

Structure (SMILES) | CC50 [1] | EC50 [2] | SI RES056 [2] | SI IIIB [3] | CC50 at 5 days ([4]; CC50) | EC50 [3] | CC50 at 5 days ([4]; mock-infected MT-4 cells, concentration reducing viability of mock-infected MT-4 cell cultures by 50%, MTT method, read-out: CC50) | CC50 at 5 days [4, 5]
Cc1cc(C#N)cc(C)c1Oc1nc(NC2CCN(Cc3ccc(C(N)=O)cc3)CC2)nc2c1SCC2 [Compound A2, 4-((4-((4-(4-cyano-2,6-dimethylphenoxy)-6,7-dihydrothieno[3,2-d]pyrimidin-2-yl)amino)piperidin-1-yl)methyl)benzamide] | 165000 ± 36900 nM | 43.6 ± 5 nM | 3804 | 34162 | – | – | – | –
Cc1cc(C#N)cc(C)c1Oc1nc(NC2CCN(Cc3ccncc3)CC2)nc2c1COC2 [Compound B4, 3,5-dimethyl-4-((2-((1-(pyridin-4-ylmethyl)piperidin-4-yl)amino)-5,7-dihydrofuro[3,4-d]pyrimidin-4-yl)oxy)benzonitrile] | – | 43.1 ± 1.2 nM | 753 | 11414 | 32500 ± 10000 nM | 2.8 nM | – | –
Cc1cc(C#N)cc(C)c1Oc1nc(NC2CCN(Cc3ccc(S(C)(=O)=O)cc3)CC2)nc2c1SCC2 [Compound A3, 3,5-dimethyl-4-((2-((1-(4-(methylsulfonyl)benzyl)piperidin-4-yl)amino)-6,7-dihydrothieno[3,2-d]pyrimidin-4-yl)oxy)benzonitrile] | 11900 ± 5570 nM | 46.6 ± 7.8 nM | 257 | 2025 | – | – | – | –
Cc1ccnc2c1NC(=O)c1cccnc1N2C1CC1 [NVP, Nevirapine, reference compound] | – | > 9510 nM | – | – | – | 163 ± 41.2 nM | > 9510 nM | –
Cc1cc(C#N)cc(C)c1Oc1nc(NC2CCN(Cc3cccc(C(N)=O)c3)CC2)nc2c1CCC2 [Compound C6, 3-((4-((4-(4-cyano-2,6-dimethylphenoxy)-6,7-dihydro-5H-cyclopenta[d]pyrimidin-2-yl)amino)piperidin-1-yl)methyl)benzamide] | – | 941 ± 368 nM | 9 | 599 | 8730 ± 3530 nM | 14.5 ± 3.6 nM | – | –
Cc1cc(C#N)cc(C)c1Oc1nc(NC2CCN(Cc3ccc(S(N)(=O)=O)cc3)CC2)nc2c1SCC2 [Compound A1, 4-((4-((4-(4-cyano-2,6-dimethylphenoxy)-6,7-dihydrothieno[3,2-d]pyrimidin-2-yl)amino)piperidin-1-yl)methyl)benzenesulfonamide] | 19900 ± 10100 nM | 28.8 ± 1.2 nM | 692 | 4584 | – | – | – | –
Cc1cc(C#N)cc(C)c1Oc1nc(NC2CCN(Cc3ccc(S(N)(=O)=O)cc3)CC2)nc2c1CSC2 [Compound D1, 4-((4-((4-(4-cyano-2,6-dimethylphenoxy)-5,7-dihydrothieno[3,4-d]pyrimidin-2-yl)amino)piperidin-1-yl)methyl)benzenesulfonamide] | 26600 ± 1960 nM | 734 ± 337 nM | 36 | 715 | – | – | – | –
Cc1cc(C#N)cc(C)c1Oc1nc(NC2CCN(Cc3ccncc3)CC2)nc2c1CCC2 [Compound C4, 3,5-dimethyl-4-((2-((1-(pyridin-4-ylmethyl)piperidin-4-yl)amino)-6,7-dihydro-5H-cyclopenta[d]pyrimidin-4-yl)oxy)benzonitrile] | – | 26800 nM | 9 | – | 205000 ± 1130 nM | 2 ± 0.5 nM | – | > 200000 nM
Cc1cc(C#N)cc(C)c1Oc1nc(Nc2ccc(C#N)cc2)nc(N)c1Br [ETR, Etravirine, reference compound] | – | – | – | – | > 4590 nM | – | – | –
Cc1cc(C#N)cc(C)c1Oc1nc(NC2CCN(Cc3ccncc3)CC2)nc2c1SCC2 [Compound A4, 3,5-dimethyl-4-((2-((1-(pyridin-4-ylmethyl)piperidin-4-yl)amino)-6,7-dihydrothieno[3,2-d]pyrimidin-4-yl)oxy)benzonitrile] | – | 46 ± 1.9 nM | ≥2305 | ≥40104 | ≥ 106000 nM | – | – | –
Cc1cc(C#N)cc(C)c1Oc1nc(NC2CCN(Cc3cccc(C(N)=O)c3)CC2)nc2c1SCC2 [Compound A6, 3-((4-((4-(4-cyano-2,6-dimethylphenoxy)-6,7-dihydrothieno[3,2-d]pyrimidin-2-yl)amino)piperidin-1-yl)methyl)benzamide] | – | 629 nM | ≥355 | ≥8048 | ≥ 223000 nM | – | – | –
Cc1cc(C#N)cc(C)c1Oc1nc(NC2CCN(Cc3ccc([N+](=O)[O-])cc3)CC2)nc2c1CCC2 [Compound C5, 3,5-dimethyl-4-((2-((1-(4-nitrobenzyl)piperidin-4-yl)amino)-6,7-dihydro-5H-cyclopenta[d]pyrimidin-4-yl)oxy)benzonitrile] | – | 187 nM | 40 | 1495 | 7450 ± 930 nM | 4.9 ± 0.8 nM | – | –
Cc1cc(C#N)cc(C)c1Oc1nc(NC2CCN(Cc3cccc(C(N)=O)c3)CC2)nc2c1COC2 [Compound B6, 3-((4-((4-(4-cyano-2,6-dimethylphenoxy)-5,7-dihydrofuro[3,4-d]pyrimidin-2-yl)amino)piperidin-1-yl)methyl)benzamide] | – | 1030 ± 51.1 nM | – | – | > 250000 nM | 7.8 ± 3.4 nM | – | –
Cc1cc(C#N)cc(C)c1Oc1nc(NC2CCN(Cc3ccc(S(N)(=O)=O)cc3)CC2)nc2c1COC2 [Compound B1, 4-((4-((4-(4-cyano-2,6-dimethylphenoxy)-5,7-dihydrofuro[3,4-d]pyrimidin-2-yl)amino)piperidin-1-yl)methyl)benzenesulfonamide] | – | 38 ± 7.5 nM | 604 | 11167 | 22900 ± 2890 nM | 2 ± 0.2 nM | – | –
Cc1cc(C#N)cc(C)c1Oc1nc(NC2CCN(Cc3ccc([N+](=O)[O-])cc3)CC2)nc2c1COC2 [Compound B5, 3,5-dimethyl-4-((2-((1-(4-nitrobenzyl)piperidin-4-yl)amino)-5,7-dihydrofuro[3,4-d]pyrimidin-4-yl)oxy)benzonitrile] | – | 511 ± 165 nM | ≥22 | ≥1497 | ≥ 11100 nM | – | – | –
Cc1cc(C#N)cc(C)c1Oc1nc(NC2CCN(Cc3ccc(S(C)(=O)=O)cc3)CC2)nc2c1CCC2 [Compound C3, 3,5-dimethyl-4-((2-((1-(4-(methylsulfonyl)benzyl)piperidin-4-yl)amino)-6,7-dihydro-5H-cyclopenta[d]pyrimidin-4-yl)oxy)benzonitrile] | – | 54.7 ± 6.22 nM | >5020 | – | > 274000 nM | 1.8 ± 0.7 nM | – | > 200000 nM
Cc1cc(C#N)cc(C)c1Oc1nc(NC2CCN(Cc3ccc(S(C)(=O)=O)cc3)CC2)nc2c1COC2 [Compound B3, 3,5-dimethyl-4-((2-((1-(4-(methylsulfonyl)benzyl)piperidin-4-yl)amino)-5,7-dihydrofuro[3,4-d]pyrimidin-4-yl)oxy)benzonitrile] | – | 41.6 ± 4.9 nM | 648 | 14414 | 27000 ± 3030 nM | 1.8 nM | – | –
Cc1cc(C#N)cc(C)c1Oc1nc(NC2CCN(Cc3ccc(C(N)=O)cc3)CC2)nc2c1CCC2 [Compound C2, 4-((4-((4-(4-cyano-2,6-dimethylphenoxy)-6,7-dihydro-5H-cyclopenta[d]pyrimidin-2-yl)amino)piperidin-1-yl)methyl)benzamide] | – | 173 ± 110 nM | >1448 | >40984 | > 251000 nM | – | – | –
